Results on nine compounds are retold here after US20230242585A1, “IMMUNOMODULATORS” (Bristol-Myers Squibb Company, priority 2020, published 2023).

Starred links: 1 amine or outer side, 2 acyl side, 3 side chain; linkers in the order of their positions; H or OH if unused. Positions of bridges follow the written chain, without caps; N, C: chain ends. Non-standard residues stand in square brackets, D forms with d. Residues, ends and D or L forms follow the SMILES beside them. X25 = CC(=O)N[C@@H](CNCC[C@H](N[*:1])C(=O)[*:2])[C@@H](O)[C@H](O)[C@H](O)CO; X24 = CC(=O)N[C@@H](CNC[C@H](N[*:1])C(=O)[*:2])[C@@H](O)[C@H](O)[C@H](O)CO; X1 = O=C([C@H](CNC[C@H](O)[C@H](O)[C@H](O)[C@H](O)CO)N[*:1])[*:2]; X34 = O=C([C@H](CCNC[C@H](O)[C@@H](O)[C@@H](O)CO)N[*:1])[*:2]; X33 = O=C([C@H](CNC[C@H](O)[C@@H](O)[C@@H](O)CO)N[*:1])[*:2]; X26 = O=C([C@H](CCNC[C@H](O)[C@H](O)[C@H](O)CO)N[*:1])[*:2]; X7 = O=C([C@H](CNC[C@H](O)[C@H](O)[C@H](O)CO)N[*:1])[*:2]; Trp(1-CH2COOH) = N[C@@H](Cc1cn(CC(=O)O)c2ccccc12)C(=O)O; X55 = O=C([C@H](CCNCc1cccc2ccc3ccccc3c12)N[*:1])[*:2]; X12 = O=C([C@H](CNCc1cccc2ccc3ccccc3c12)N[*:1])[*:2]; X16 = O=C([C@H](CCNCC(O)C(O)C(O)CO)N[*:1])[*:2]; X15 = O=C([C@H](CNCC(O)C(O)C(O)CO)N[*:1])[*:2]; X61 = O=C([C@H](CCNCc1ccccc1O)N[*:1])[*:2]; X60 = O=C([C@H](CNCc1ccccc1O)N[*:1])[*:2]; Hyp = O=C(O)[C@@H]1C[C@@H](O)CN1; NMeNle = CCCC[C@H](NC)C(=O)O; NMeA = CN[C@@H](C)C(=O)O; Dab = NCC[C@H](N)C(=O)O

T1 sequence (Q9NZQ7 18-239): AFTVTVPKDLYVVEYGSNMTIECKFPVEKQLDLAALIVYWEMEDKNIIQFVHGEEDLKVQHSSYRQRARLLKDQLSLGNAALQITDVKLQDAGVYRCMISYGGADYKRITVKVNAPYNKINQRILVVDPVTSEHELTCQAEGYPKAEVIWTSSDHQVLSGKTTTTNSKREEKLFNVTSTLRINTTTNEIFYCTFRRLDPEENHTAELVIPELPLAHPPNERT

This experiment addresses T1, PD-1/PD-L1 (Homo sapiens, UniProt Q9NZQ7).
T1 construct: TVMV protease site (linker) (C); made in house; host or cells: HEK293T cells
Put plainly: PD-1/PD-L1 Homogenous Time-Resolved Fluorescence (HTRF) binding assay. As to conditions: PD-L1-His 10 nM, PD-1-Ig 20 nM. The source says:
The ability of the compounds of formula (I) to bind to PD-L1 was investigated using a PD-1/PD-L1 Homogenous Time-Resolved Fluorescence (HTRF) binding assay.
The interaction of PD-1 and PD-L1 can be assessed using soluble, purified preparations of the extracellular domains of the two proteins. The PD-1 and PD-L1 protein extracellular domains were expressed as fusion proteins with detection tags, for PD-1, the tag was the Fc portion of Immunoglobulin (PD-1-Ig) and for PD-L1 it was the 6 histidine motif (PD-L1-His). All binding studies were performed in an HTRF assay buffer consisting of dPBS supplemented with 0.1% […] bovine serum albumin and 0.05% (v/v) Tween-20. For the h/PD-L1-His binding assay, inhibitors were pre-incubated with PD-L1-His (10 nM final) for 15 m in 4 µl of assay buffer, followed by addition of PD-1-Ig (20 nM final) in 1 µl of assay buffer and further incubation for 15 m. HTRF detection was achieved using europium crypate-labeled anti-Ig (1 nM final) and allophycocyanin (APC) labeled anti-His (20 nM final). Antibodies were diluted in HTRF detection buffer and 5 µl was dispensed on top of the binding reaction. The reaction mixture was allowed to equilibrate for 30 minutes and the resulting signal (665 nm/620 nm ratio) was obtained using an EnVision fluorometer. Additional binding assays were established between the human proteins PD-1-Ig/PD-L2-His (20 & 5 nM, respectively) and CD80-His/PD-L1-Ig (100 & 10 nM, respectively).
Recombinant Proteins: Human PD-1 (25-167) with a C-terminal human Fc domain of immunoglobulin G (Ig) epitope tag [hPD-1 (25-167)-3S-IG] and human PD-L1 (18-239) with a C-terminal His epitope tag [hPD-L1(18-239)-TVMV-His] were expressed in HEK293T cells and purified sequentially by ProteinA affinity chromatography and size exclusion chromatography. Human PD-L2-His and CD80-His was obtained through commercial sources.
Table 1 lists the IC50 values for representative examples of this disclosure measured in the PD-1/PD-L1 Homogenous Time-Resolved Fluorescence (HTRF) binding assay.
A general note: In TR-FRET formats the signal depends on donor and acceptor labels being close together.
As usually defined, the IC50 is the concentration that gives 50% inhibition. The low end stands for greater potency, the high end for weaker potency. As for `CCCC[C@H]1C(=O)N(C)[C@@H](CCCC)C(=O)N[C@@H](CC(C)C)C(=O)N[C@H](C(=O)NCC(N)=O)CSCC(=O)N[C@@H](Cc2ccc(O)cc2)C(=O)N(C)[C@@H](C)C(=O)N[C@@H](CC(N)=O)C(=O)N2CCC[C@H]2C(=O)N[C@@H](CNCc2ccccc2O)C(=O)N[C@@H](CC(C)C)C(=O)N2C[C@H](O)C[C@H]2C(=O)N[C@@H](Cc2c[nH]c3ccccc23)C(=O)N[C@@H](CCNCc2ccccc2O)C(=O)N[C@@H](Cc2cn(CC(=O)O)c3ccccc23)C(=O)N1C` [Example 1021] ({CH2CO}-Y[NMeA]NP[X60]L[Hyp]W[X61][Trp(1-CH2COOH)][NMeNle][NMeNle]LCG-NH2; thioether N-14), the IC50 turned out to be 7.6 nM.

Regarding `CCCC[C@H]1C(=O)N(C)[C@@H](CCCC)C(=O)N[C@@H](CC(C)C)C(=O)N[C@H](C(=O)NCC(N)=O)CSCC(=O)N[C@@H](Cc2ccc(O)cc2)C(=O)N(C)[C@@H](C)C(=O)N[C@@H](CC(N)=O)C(=O)N2CCC[C@H]2C(=O)N[C@@H](CNCc2cccc3ccc4ccccc4c23)C(=O)N[C@@H](CC(C)C)C(=O)N2C[C@H](O)C[C@H]2C(=O)N[C@@H](Cc2c[nH]c3ccccc23)C(=O)N[C@@H](CCNCc2cccc3ccc4ccccc4c23)C(=O)N[C@@H](Cc2cn(CC(=O)O)c3ccccc23)C(=O)N1C` [Example 1022] ({CH2CO}-Y[NMeA]NP[X12]L[Hyp]W[X55][Trp(1-CH2COOH)][NMeNle][NMeNle]LCG-NH2; thioether N-14), the IC50 turned out to be 1400 nM.

Compound `CCCC[C@H]1C(=O)N(C)[C@@H](CCCC)C(=O)N[C@@H](CC(C)C)C(=O)N[C@H](C(=O)NCC(N)=O)CSCC(=O)N[C@@H](Cc2ccc(O)cc2)C(=O)N(C)[C@@H](C)C(=O)N[C@@H](CC(N)=O)C(=O)N2CCC[C@H]2C(=O)N[C@@H](CNCC(O)C(O)C(O)CO)C(=O)N[C@@H](CC(C)C)C(=O)N2C[C@H](O)C[C@H]2C(=O)N[C@@H](Cc2c[nH]c3ccccc23)C(=O)N[C@@H](CCNCC(O)C(O)C(O)CO)C(=O)N[C@@H](Cc2cn(CC(=O)O)c3ccccc23)C(=O)N1C` (stereo partly drawn) [Example 2001] ({CH2CO}-Y[NMeA]NP[X15]L[Hyp]W[X16][Trp(1-CH2COOH)][NMeNle][NMeNle]LCG-NH2; thioether N-14) gave an IC50 of 7.8 nM.

`CCCC[C@H]1C(=O)N(C)[C@@H](CCCC)C(=O)N[C@@H](CC(C)C)C(=O)N[C@H](C(=O)NCC(N)=O)CSCC(=O)N[C@@H](Cc2ccc(O)cc2)C(=O)N(C)[C@@H](C)C(=O)N[C@@H](CC(N)=O)C(=O)N2CCC[C@H]2C(=O)N[C@@H](CNC[C@H](O)[C@@H](O)[C@@H](O)CO)C(=O)N[C@@H](CC(C)C)C(=O)N2C[C@H](O)C[C@H]2C(=O)N[C@@H](Cc2c[nH]c3ccccc23)C(=O)N[C@@H](CCN)C(=O)N[C@@H](Cc2cn(CC(=O)O)c3ccccc23)C(=O)N1C` [Example 2002] ({CH2CO}-Y[NMeA]NP[X33]L[Hyp]W[Dab][Trp(1-CH2COOH)][NMeNle][NMeNle]LCG-NH2; thioether N-14) had an IC50 of 5 nM.

As for `CCCC[C@H]1C(=O)N(C)[C@@H](CCCC)C(=O)N[C@@H](CC(C)C)C(=O)N[C@H](C(=O)NCC(N)=O)CSCC(=O)N[C@@H](Cc2ccc(O)cc2)C(=O)N(C)[C@@H](C)C(=O)N[C@@H](CC(N)=O)C(=O)N2CCC[C@H]2C(=O)N[C@@H](CNC[C@H](O)[C@H](O)[C@H](O)CO)C(=O)N[C@@H](CC(C)C)C(=O)N2C[C@H](O)C[C@H]2C(=O)N[C@@H](Cc2c[nH]c3ccccc23)C(=O)N[C@@H](CCNC[C@H](O)[C@H](O)[C@H](O)CO)C(=O)N[C@@H](Cc2cn(CC(=O)O)c3ccccc23)C(=O)N1C` [Example 2003] ({CH2CO}-Y[NMeA]NP[X7]L[Hyp]W[X26][Trp(1-CH2COOH)][NMeNle][NMeNle]LCG-NH2; thioether N-14), the IC50 was found to be 9.9 nM.

Consider `CCCC[C@H]1C(=O)N(C)[C@@H](CCCC)C(=O)N[C@@H](CC(C)C)C(=O)N[C@H](C(=O)NCC(N)=O)CSCC(=O)N[C@@H](Cc2ccc(O)cc2)C(=O)N(C)[C@@H](C)C(=O)N[C@@H](CC(N)=O)C(=O)N2CCC[C@H]2C(=O)N[C@@H](CNC[C@H](O)[C@@H](O)[C@@H](O)CO)C(=O)N[C@@H](CC(C)C)C(=O)N2C[C@H](O)C[C@H]2C(=O)N[C@@H](Cc2c[nH]c3ccccc23)C(=O)N[C@@H](CCNC[C@H](O)[C@@H](O)[C@@H](O)CO)C(=O)N[C@@H](Cc2cn(CC(=O)O)c3ccccc23)C(=O)N1C` [Example 2004] ({CH2CO}-Y[NMeA]NP[X33]L[Hyp]W[X34][Trp(1-CH2COOH)][NMeNle][NMeNle]LCG-NH2; thioether N-14), for which the IC50 turned out to be 6.7 nM.

Compound `CCCC[C@H]1C(=O)N(C)[C@@H](CCCC)C(=O)N[C@@H](CC(C)C)C(=O)N[C@H](C(=O)NCC(N)=O)CSCC(=O)N[C@@H](Cc2ccc(O)cc2)C(=O)N(C)[C@@H](C)C(=O)N[C@@H](CC(N)=O)C(=O)N2CCC[C@H]2C(=O)N[C@@H](CNC[C@H](O)[C@H](O)[C@H](O)CO)C(=O)N[C@@H](CC(C)C)C(=O)N2C[C@H](O)C[C@H]2C(=O)N[C@@H](Cc2c[nH]c3ccccc23)C(=O)N[C@@H](CCN)C(=O)N[C@@H](Cc2cn(CC(=O)O)c3ccccc23)C(=O)N1C` [Example 2006] ({CH2CO}-Y[NMeA]NP[X7]L[Hyp]W[Dab][Trp(1-CH2COOH)][NMeNle][NMeNle]LCG-NH2; thioether N-14) gave a 50% inhibitory concentration (IC50) of 12 nM.

Compound `CCCC[C@H]1C(=O)N(C)[C@@H](CCCC)C(=O)N[C@@H](CC(C)C)C(=O)N[C@H](C(=O)NCC(N)=O)CSCC(=O)N[C@@H](Cc2ccc(O)cc2)C(=O)N(C)[C@@H](C)C(=O)N[C@@H](CC(N)=O)C(=O)N2CCC[C@H]2C(=O)N[C@@H](CNC[C@H](O)[C@H](O)[C@H](O)[C@H](O)CO)C(=O)N[C@@H](CC(C)C)C(=O)N2C[C@H](O)C[C@H]2C(=O)N[C@@H](Cc2c[nH]c3ccccc23)C(=O)N[C@@H](CCN)C(=O)N[C@@H](Cc2cn(CC(=O)O)c3ccccc23)C(=O)N1C` [Example 2007] ({CH2CO}-Y[NMeA]NP[X1]L[Hyp]W[Dab][Trp(1-CH2COOH)][NMeNle][NMeNle]LCG-NH2; thioether N-14) had an IC50 of 5.1 nM.

The compound `CCCC[C@H]1C(=O)N(C)[C@@H](CCCC)C(=O)N[C@@H](CC(C)C)C(=O)N[C@H](C(=O)NCC(N)=O)CSCC(=O)N[C@@H](Cc2ccc(O)cc2)C(=O)N(C)[C@@H](C)C(=O)N[C@@H](CC(N)=O)C(=O)N2CCC[C@H]2C(=O)N[C@@H](CNC[C@H](NC(C)=O)[C@@H](O)[C@H](O)[C@H](O)CO)C(=O)N[C@@H](CC(C)C)C(=O)N2C[C@H](O)C[C@H]2C(=O)N[C@@H](Cc2c[nH]c3ccccc23)C(=O)N[C@@H](CCNC[C@H](NC(C)=O)[C@@H](O)[C@H](O)[C@H](O)CO)C(=O)N[C@@H](Cc2cn(CC(=O)O)c3ccccc23)C(=O)N1C` [Example 2009] ({CH2CO}-Y[NMeA]NP[X24]L[Hyp]W[X25][Trp(1-CH2COOH)][NMeNle][NMeNle]LCG-NH2; thioether N-14) displayed an IC50 of 5.7 nM.
